Experimental data: patent US20250041429A1, “COMPOUND HAVING BTK PROTEIN DEGRADATION ACTIVITY, AND MEDICAL USES THEREOF” (UBIX THERAPEUTICS, INC., priority 2021, published 2025)

Target: T1, BTK protein (Homo sapiens, UniProt Q06187)
T1 construct: endogenous in cells; host or cells: TMD-8 cells
Assay: Measurement of BTK protein degradation ability in TMD-8 cells (Western blotting)
Assay type: cell-based
Conditions: harvested after 24 hours; for BTK degradation (%) 1 nM: compound 1 nM; for BTK degradation (%) 10 nM: compound 10 nM; for BTK degradation (%) 100 nM: compound 100 nM
Protocol: TMD-8, RAMOS, or 293T BTK MUT (C481S) cells were treated with the synthesized compounds, and then the amount of BTK protein present in the cells was measured using Western blotting detection. The protocol for the experiment conducted using TMD-8 cells was as follows:
[Culture] TMD-8 cells were resuspended in RPMI1640 MEDIUM (Hyclone, SH30027.01), 10% FBS (Hyclone, SV30207.02), and 1% Penicillin-streptomycin (Welgene, LS 202-02) media, and 1 mL of this suspension was seeded in a 12-well plate at a cell concentration of 1×10^6/mL.
[Compound treatment] The 12-well plate was treated as follows: The 10 mM stock was serially diluted 1/10 with DMSO (3 μL+27 μL DMSO), and cells were treated with compounds at final concentrations of 0.1, 1, 10 μM or 0.0001, 0.001, 0.01, 0.1 μM, and harvested after 24 hours. In the negative control group, DMSO diluted 1/10 was added to the media. (3 μL DMSO+27 μL media)
[Harvest] Each well was pipetted with a 1 mL pipette, collected in a 1.5 mL microtube, and centrifuged (500 g, 5 min, 4° C.). After removing the supernatant, it was washed with PBS and centrifuged again (500 g, 5 min, 4° C.). The supernatant was removed and the pellet was collected.
[Cell lysis and Sample preparation] lysis buffer was prepared as follows: RIPA buffer (Biosesang, RC2038-050-00), 0.5 mM PMSF (SIGMA, P7626) and 1× Protease/Phosphatase Inhibitor (Cell signaling, 5872S) were added at 60-70 μL per well and left on ice for 30 minutes. (Vortexing at 0 and 30 minutes, respectively), followed by sonication (10 seconds pulse, 30 seconds rest, 5 cycles, 70% amplification) and centrifuge (15000 g, 15 min, 4° C.). Only the supernatant was collected and transferred to a new microtube. The samples were diluted by ½ with RIPA buffer in a 96-well plate. 200 μL of the mixture A:B=50:1 of the BCA Protein Assay Kit (iNtRON, 21071) was added each, stayed at 37° C. for 30 minutes, and cooled for 10 minutes. Afterwards, absorbance was measured at 562 nm using BioTek's SYNERGY H1 microplate reader. After making a sample by quantifying the protein using the measured value, it was boiled at 70° C. for 10 minutes. The sample buffer used at this time was a mixture of NuPAGE or Bolt 4× sample buffer (Invitrogen) and each 10× sample reducing agent according to the gel to be used. RIPA buffer was used for protein dilution.
[Western blotting detection method] The same amount of sample was loaded on NuPAGE or Bolt Bis-tris 4-12% gradient gel and run (200 V, 35 minutes). It was transferred to a […] NC membrane using Trans-blot Turbo (BIO-RAD) (1.3 A constant, 25 V limit, 15 minutes). For blocking, skim milk or Intercept Blocking Buffer (LI-COR, 927-60001): 0.1% TBST=1:1 was used at room temperature for 1 hour. Anti BTK Rabbit (1:1,000 in 5% skim milk/0.2% TBST, size: 77 kDa, Cell signaling Technology) was reacted at 4° C. for 16 hours or at room temperature for 2 hours. Anti GAPDH Rabbit (1:10,000 in 5% BSA/0.2% TBST, size: 36 kDa, GENETEX) and Anti β-actin mouse (1:10,000 in 5% BSA/0.2% TBST, RT, size: 43 kDa, GENETEX) were reacted at room temperature for 1 hour or 3 hours. The samples were washed 3 times with 0.5% TBST for 5 minutes each. Secondary antibodies, Anti-Rabbit IgG (1:5,000 in 5% Skim milk/TBST, CST), IRDye® 800CW Goat anti-Rabbit IgG Secondary Antibody (1:10,000 in 5% skim/TBST, RT 45 min), IRDye® 680RD Goat anti-Mouse IgG Secondary Antibody (1:10,000 in 5% skim/TBST, RT 45 min) were added depending on each sample and reacted for 45 minutes on a rocker at room temperature. The samples were washed 5 times with 0.5% TBST for 5 minutes each and detected with LI-COR's Odyssey. At this time, BTK was detected using SuperSignal West Pico PLUS Chemiluminescent Substrate or SuperSignal West femto Maximum Sensitivity Substrate, and house-keeping genes were detected as is.

T1 sequence (Q06187 whole entry): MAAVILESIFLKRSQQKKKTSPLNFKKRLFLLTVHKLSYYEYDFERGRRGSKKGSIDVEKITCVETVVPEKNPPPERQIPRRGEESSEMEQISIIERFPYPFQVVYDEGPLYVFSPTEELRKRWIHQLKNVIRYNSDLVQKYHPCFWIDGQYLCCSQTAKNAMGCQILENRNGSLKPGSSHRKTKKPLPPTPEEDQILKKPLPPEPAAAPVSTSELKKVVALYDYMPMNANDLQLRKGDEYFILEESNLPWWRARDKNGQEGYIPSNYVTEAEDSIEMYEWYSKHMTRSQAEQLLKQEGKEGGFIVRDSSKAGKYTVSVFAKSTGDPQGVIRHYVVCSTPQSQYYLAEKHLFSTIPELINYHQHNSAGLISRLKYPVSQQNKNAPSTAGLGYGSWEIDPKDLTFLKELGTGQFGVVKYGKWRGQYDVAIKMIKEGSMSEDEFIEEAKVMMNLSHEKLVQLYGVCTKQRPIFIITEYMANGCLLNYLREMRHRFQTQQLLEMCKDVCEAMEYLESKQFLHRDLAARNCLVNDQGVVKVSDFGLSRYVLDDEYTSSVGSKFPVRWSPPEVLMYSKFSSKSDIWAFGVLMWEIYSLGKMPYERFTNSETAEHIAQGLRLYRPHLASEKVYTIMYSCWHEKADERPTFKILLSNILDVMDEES

Compound | BTK degradation (%) 1 nM [%] | BTK degradation (%) 10 nM [%] | BTK degradation (%) 100 nM [%]
Cc1cc(-c2ccnc(Nc3ccc(C4CCN(CC5CCN(c6ccc7c(c6)C(=O)N(C6CCC(=O)NC6=O)C7=O)CC5)CC4)nc3)n2)ccc1CNC(=O)N1CC(OC(C)C)C1 (stereo not drawn) [Example 19, N-(4-(2-((6-(1-((1-(2-(2,6-dioxopiperidin-3-yl)-1,3-dioxoisoindolin-5-yl)piperidin-4-yl)methyl)piperidin-4-yl)pyridin-3-yl)amino)pyrimidin-4-yl)-2-methylbenzyl)-3-isopropoxyazetidine-1-carboxamide] | 48 | 93 | 99
Cc1cc(-c2ccnc(Nc3ccc(C4CCN(CC5CN(c6ccc7c(c6)C(=O)N(C6CCC(=O)NC6=O)C7=O)C5)CC4)nc3)n2)ccc1CNC(=O)N1CC(OC(C)C)C1 (stereo not drawn) [Example 20, N-(4-(2-((6-(1-((1-(2-(2,6-dioxopiperidin-3-yl)-1,3-dioxoisoindolin-5-yl)azetidin-3-yl)methyl)piperidin-4-yl)pyridin-3-yl)amino)pyrimidin-4-yl)-2-methylbenzyl)-3-isopropoxyazetidine-1-carboxamide] | 49 | 92 | 98.5
Cc1cc(-c2ccnc(Nc3cnn(C4CCN(CC5CCN(c6ccc7c(c6)C(=O)N(C6CCC(=O)NC6=O)C7=O)CC5)CC4)c3)n2)ccc1CNC(=O)N1CC(OC(C)C)C1 (stereo not drawn) [Example 21, N-(4-(2-((1-(1-((1-(2-(2,6-dioxopiperidin-3-yl)-1,3-dioxoisoindolin-5-yl)piperidin-4-yl)methyl)piperidin-4-yl)-1H-pyrazol-4-yl)amino)pyrimidin-4-yl)-2-methylbenzyl)-3-isopropoxyazetidine-1-carboxamide] | 70 | 96.5 | 99
Cc1cc(-c2ccnc(Nc3cnn(C4CCN(CC5CN(c6ccc7c(c6)C(=O)N(C6CCC(=O)NC6=O)C7=O)C5)CC4)c3)n2)ccc1CNC(=O)N1CC(OC(C)C)C1 (stereo not drawn) [Example 22, N-(4-(2-((1-(1-((1-(2-(2,6-dioxopiperidin-3-yl)-1,3-dioxoisoindolin-5-yl)azetidin-3-yl)methyl)piperidin-4-yl)-1H-pyrazol-4-yl)amino)pyrimidin-4-yl)-2-methylbenzyl)-3-isopropoxyazetidine-1-carboxamide] | 75 | 97 | 99
Cc1c(NC(=O)N2CC(OC(C)C)C2)cc(F)cc1-c1ccnc(Nc2ccc(N3CCN(CC4CCN(c5ccc6c(c5)C(=O)N(C5CCC(=O)NC5=O)C6=O)CC4)CC3)cc2)n1 (stereo not drawn) [Example 23, N-(3-(2-((4-(4-((1-(2-(2,6-dioxopiperidin-3-yl)-1,3-dioxoisoindolin-5-yl)piperidin-4-yl)methyl)piperazin-1-yl)phenyl)amino)pyrimidin-4-yl)-5-fluoro-2-methylphenyl)-3-isopropoxyazetidine-1-carboxamide] |  | 72 | 91.5
Cc1c(NC(=O)c2cnn(C(C)(C)C)c2)cc(F)cc1-c1ccnc(Nc2ccc(N3CCN(CC4CCN(c5ccc6c(c5)C(=O)N(C5CCC(=O)NC5=O)C6=O)CC4)CC3)cc2)n1 (stereo not drawn) [Example 24, 1-(tert-butyl)-N-(3-(2-((4-(4-((1-(2-(2,6-dioxopiperidin-3-yl)-1,3-dioxoisoindolin-5-yl)piperidin-4-yl)methyl)piperazin-1-yl)phenyl)amino)pyrimidin-4-yl)-5-fluoro-2-methylphenyl)-1H-pyrazole-4-carboxamide] |  | 6.5 | 20
Cc1c(NC(=O)c2cn(C(C)(C)C)nn2)cc(F)cc1-c1ccnc(Nc2ccc(N3CCN(CC4CCN(c5ccc6c(c5)C(=O)N(C5CCC(=O)NC5=O)C6=O)CC4)CC3)cc2)n1 (stereo not drawn) [Example 25, 1-(tert-butyl)-N-(3-(2-((4-(4-((1-(2-(2,6-dioxopiperidin-3-yl)-1,3-dioxoisoindolin-5-yl)piperidin-4-yl)methyl)piperazin-1-yl)phenyl)amino)pyrimidin-4-yl)-5-fluoro-2-methylphenyl)-1H-1,2,3-triazole-4-carboxamide] |  | 8.5 | 24
Cc1c(NC(=O)N2CC(OC(C)C)C2)cc(F)cc1-c1ccnc(Nc2ccc(N3CCN(CC4CCN(c5ccc6c(n5)CN(C5CCC(=O)NC5=O)C6=O)CC4)CC3)cc2)n1 (stereo not drawn) [Example 26, N-(3-(2-((4-(4-((1-(6-(2,6-dioxopiperidin-3-yl)-5-oxo-6,7-dihydro-5H-pyrrolo[3,4-b]pyridin-2-yl)piperidin-4-yl)methyl)piperazin-1-yl)phenyl)amino)pyrimidin-4-yl)-5-fluoro-2-methylphenyl)-3-isopropoxyazetidine-1-carboxamide] | 15.5 | 76 | 93
Cc1c(NC(=O)N2CC(OC(C)C)C2)cc(F)cc1-c1ccnc(Nc2ccc(N3CCN(CC4CN(c5ccc6c(c5)C(=O)N(C5CCC(=O)NC5=O)C6=O)C4)CC3)cc2)n1 (stereo not drawn) [Example 27, N-(3-(2-((4-(4-((1-(2-(2,6-dioxopiperidin-3-yl)-1,3-dioxoisoindolin-5-yl)azetidin-3-yl)methyl)piperazin-1-yl)phenyl)amino)pyrimidin-4-yl)-5-fluoro-2-methylphenyl)-3-isopropoxyazetidine-1-carboxamide] | 26.5 | 71.5 | 94.5
Cc1cc(CNC(=O)N2CC(OC(C)C)C2)cc(-c2ccnc(Nc3ccc(N4CCN(CC5CCN(c6ccc7c(c6)C(=O)N(C6CCC(=O)NC6=O)C7=O)CC5)CC4)cc3)n2)c1 (stereo not drawn) [Example 28, N-(3-(2-((4-(4-((1-(2-(2,6-dioxopiperidin-3-yl)-1,3-dioxoisoindolin-5-yl)piperidin-4-yl)methyl)piperazin-1-yl)phenyl)amino)pyrimidin-4-yl)-5-methylbenzyl)-3-isopropoxyazetidine-1-carboxamide] | 18 | 12 | 4.5
Cc1cc(NC(=O)N2CC(OC(C)C)C2)cc(-c2ccnc(Nc3ccc(N4CCN(CC5CCN(c6ccc7c(c6)C(=O)N(C6CCC(=O)NC6=O)C7=O)CC5)CC4)cc3)n2)c1 (stereo not drawn) [Example 29, N-(3-(2-((4-(4-((1-(2-(2,6-dioxopiperidin-3-yl)-1,3-dioxoisoindolin-5-yl)piperidin-4-yl)methyl)piperazin-1-yl)phenyl)amino)pyrimidin-4-yl)-5-methylphenyl)-3-isopropoxyazetidine-1-carboxamide] | 7 | 40.5 | 81.5
Cc1cc(-c2ccnc(Nc3ccc(N4CCN(CC5CCN(c6ccc7c(c6)C(=O)N(C6CCC(=O)NC6=O)C7=O)CC5)CC4)cc3)n2)ccc1COC(=O)N1CC(OC(C)C)C1 (stereo not drawn) [Example 30, 4-(2-((4-(4-((1-(2-(2,6-dioxopiperidin-3-yl)-1,3-dioxoisoindolin-5-yl)piperidin-4-yl)methyl)piperazin-1-yl)phenyl)amino)pyrimidin-4-yl)-2-methylbenzyl 3-isopropoxyazetidine-1-carboxylate] | −1 | 20.5 | 91.5
